According to the CheMixHub ionic liquid set:
Several values for one entry are separate records, joined by “and”; a condition that tells them apart may be missing. Identical values can stand only once.

Test: xn = mol fraction of the nth substance listed

CCC[N+]1(C)CCCC1.O=S(=O)([N-]S(=O)(=O)C(F)(F)F)C(F)(F)F + CCC[N+]1(C)CCCC1.N#C[N-]C#N
101 kPa, x2 = 0
Conditions | electrical conductivity [S/m] | viscosity [mPa·s]
313.15 K | 0.678 | 34.4
353.15 K | – | 11.6

O + CCCCCCCCCCCCCCCC[n+]1ccccc1.O=C([O-])C(O)c1ccccc1 + NCC(=O)NCC(=O)O
101 kPa, x2 = 0, x3 = 0
Conditions | electrical conductivity [S/m]
293.15 K | 0.00012
298.15 K | 0.00015
303.15 K | 0.00016
308.15 K | 0.00017
313.15 K | 0.00019

O + CCCCCCCCCCCCCC[n+]1ccccc1.O=C([O-])C(O)c1ccccc1 + CC(C)C[C@H](N)C(=O)O
101 kPa, x2 = 0, x3 = 0
Conditions | electrical conductivity [S/m]
293.15 K | 0.00012
298.15 K | 0.00015
303.15 K | 0.00016
308.15 K | 0.00017
313.15 K | 0.00019

O + CCCCCCCCCCCCCC[n+]1ccccc1.O=C([O-])C(O)c1ccccc1 + NCC(=O)NCC(=O)O
101 kPa, x2 = 0, x3 = 0
Conditions | electrical conductivity [S/m]
293.15 K | 0.00012
298.15 K | 0.00015
303.15 K | 0.00016
308.15 K | 0.00017
313.15 K | 0.00019

CCCC[N+]1(C)CCCC1.N#C[N-]C#N + CCCC[N+]1(C)CCCC1.O=S(=O)([N-]S(=O)(=O)C(F)(F)F)C(F)(F)F + O=S(=O)([N-]S(=O)(=O)C(F)(F)F)C(F)(F)F.[Li+]
electrical conductivity [S/m], 101 kPa, frequency 0 MHz
Conditions | 298 K | 303 K | 308 K | 313 K | 318 K | 323 K
x2 = 0.475, x1 = 0.475 | 0.481 | 0.572 | 0.67 | 0.788 | 0.912 | 1.05
x2 = 0.5, x1 = 0.5 | 0.565 | 0.642 | 0.746 | 0.857 | 0.962 | 1.12

viscosity [mPa·s], 101 kPa
Conditions | 298 K | 303 K | 308 K | 313 K | 318 K | 323 K | 328 K
x2 = 0.475, x1 = 0.475 | 60.7 | 51.9 | 42.6 | 35.9 | 31.2 | 27.6 | 24.2
x2 = 0.5, x1 = 0.5 | 51.3 | – | 32 | 26.7 | 22.7 | 19.7 | 17.06

COCC[n+]1ccn(C)c1.O=S(=O)([N-]S(=O)(=O)C(F)(F)F)C(F)(F)F + O
101 kPa, x1 = 0.838
Conditions | electrical conductivity [S/m] | viscosity [mPa·s]
283 K | – | 66.6
298.15 K | 0.58 | –

CCCCCC[n+]1ccn(C)c1.c1nnn[n-]1 + CCCCCCCC[P+](CC)(CC)CC.O=S(=O)([N-]S(=O)(=O)C(F)(F)F)C(F)(F)F
100 kPa
Conditions | viscosity [mPa·s]
278.15 K, x2 = 0.301 | 990
283.15 K, x2 = 0.597 | 409
283.15 K, x2 = 0.697 | 347
288.15 K, x2 = 0.4 | 414
298.15 K, x2 = 0.597 | 156
303.15 K, x2 = 0.4 | 156
303.15 K, x2 = 0.5 | 129
303.15 K, x2 = 0.899 | 90
308.15 K, x2 = 0.5 | 100
308.15 K, x2 = 0.597 | 93
308.15 K, x2 = 0.697 | 82
313.15 K, x2 = 0.697 | 66
318.15 K, x2 = 0.301 | 77
318.15 K, x2 = 0.4 | 74
318.15 K, x2 = 0.597 | 61
323.15 K, x2 = 0.1 | 86
323.15 K, x2 = 0.5 | 52

CCCC[n+]1ccn(C)c1.F[B-](F)(F)F + CN(C)C=O
Conditions | viscosity [mPa·s]
293.15 K, 101 kPa, x1 = 0.08 | 3.1
298.15 K, 101 kPa, x1 = 0.74 | 42.5
298.15 K, 101 kPa, x1 = 0.83 | 62.4
298.15 K, 101 kPa, x1 = 0.94 | 88
298.15 K, 101.33 kPa, x2 = 0.1024 | 78
303.15 K, 100 kPa, x1 = 0.1008 | 1.497
303.15 K, 101 kPa, x1 = 0.94 | 74
308.15 K, 101 kPa, x1 = 0.43 | 5.71
313.15 K, 100 kPa, x1 = 0.8015 | 25.47
313.15 K, 100 kPa, x1 = 1 | 53.84
313.15 K, 101 kPa, x1 = 0.16 | 2.45
313.15 K, 101 kPa, x1 = 0.74 | 18.5
318.15 K, 101 kPa, x1 = 0.08 | 1.42
318.15 K, 101 kPa, x1 = 0.55 | 1.67
318.15 K, 101 kPa, x1 = 0.74 | 12
323.15 K, 100 kPa, x1 = 0.3022 | 2.993
323.15 K, 100 kPa, x1 = 0.7019 | 14.07
323.15 K, 101 kPa, x1 = 0.08 | 1.19
323.15 K, 101 kPa, x1 = 0.74 | 6.8
323.15 K, 101 kPa, x1 = 0.94 | 26.6
333.15 K, 100 kPa, x1 = 0.7019 | 10.75

O=C1CCCC1 + CCCC[n+]1ccn(C)c1.F[P-](F)(F)(F)(F)F
298.15 K, 101.3 kPa
Conditions | viscosity [mPa·s]
x1 = 0.0936 | 175
x1 = 0.3093 | 66
x1 = 0.4012 | 42.2
x1 = 0.5514 | 19.23

CCCC[n+]1ccn(C)c1.F[B-](F)(F)F + c1ccncc1
298.15 K, 101 kPa, x2 = 0
Conditions | electrical conductivity [S/m] | viscosity [mPa·s]
– | 0.194 | 116

CC1COC(=O)O1 (stereo unspecified) + CCCC[n+]1ccn(C)c1.F[B-](F)(F)F
100 kPa, frequency 0.003 MHz
Conditions | electrical conductivity [S/m]
296.9 K, x2 = 0.4 | 0.993
297 K, x2 = 0.6 | 0.747
297 K, x2 = 0.8 | 0.59
297.1 K, x2 = 0.2 | 1.26
297.1 K, x2 = 0.9 | 0.441
299.9 K, x2 = 0.2 | 1.3
299.9 K, x2 = 0.4 | 1.04
299.9 K, x2 = 0.8 | 0.63
299.9 K, x2 = 0.9 | 0.482
300 K, x2 = 0.6 | 0.794
302.5 K, x2 = 0.9 | 0.522
302.6 K, x2 = 0.2 | 1.32
302.6 K, x2 = 0.6 | 0.84
302.6 K, x2 = 0.8 | 0.675
302.7 K, x2 = 0.4 | 1.08
305.4 K, x2 = 0.8 | 0.72
305.4 K, x2 = 0.9 | 0.564
305.5 K, x2 = 0.2 | 1.34
305.5 K, x2 = 0.4 | 1.13
305.6 K, x2 = 0.6 | 0.882
308.2 K, x2 = 0.2 | 1.36
308.2 K, x2 = 0.4 | 1.17
308.2 K, x2 = 0.6 | 0.93
308.2 K, x2 = 0.8 | 0.759
308.2 K, x2 = 0.9 | 0.607
310.9 K, x2 = 0.2 | 1.4
311 K, x2 = 0.6 | 0.968
311 K, x2 = 0.8 | 0.803
311 K, x2 = 0.9 | 0.65
311.2 K, x2 = 0.4 | 1.21
313.6 K, x2 = 0.4 | 1.25
313.6 K, x2 = 0.6 | 1.01
313.6 K, x2 = 0.8 | 0.846
313.6 K, x2 = 0.9 | 0.691
313.9 K, x2 = 0.2 | 1.41
316.5 K, x2 = 0.6 | 1.05
316.5 K, x2 = 0.8 | 0.892
316.6 K, x2 = 0.9 | 0.74
316.7 K, x2 = 0.2 | 1.43
316.7 K, x2 = 0.4 | 1.29
319.2 K, x2 = 0.4 | 1.32
319.3 K, x2 = 0.6 | 1.1
319.3 K, x2 = 0.8 | 0.933
319.5 K, x2 = 0.9 | 0.786
319.7 K, x2 = 0.2 | 1.45
322 K, x2 = 0.8 | 0.979
322 K, x2 = 0.9 | 0.829
322.2 K, x2 = 0.2 | 1.47
322.2 K, x2 = 0.4 | 1.35
322.2 K, x2 = 0.6 | 1.15
324.8 K, x2 = 0.4 | 1.38
324.8 K, x2 = 0.8 | 1.02
324.8 K, x2 = 0.9 | 0.874
325 K, x2 = 0.6 | 1.18
325.1 K, x2 = 0.2 | 1.49
327.4 K, x2 = 0.4 | 1.41
327.6 K, x2 = 0.6 | 1.22
327.6 K, x2 = 0.8 | 1.06
327.6 K, x2 = 0.9 | 0.921
327.8 K, x2 = 0.2 | 1.51
330.4 K, x2 = 0.6 | 1.25
330.6 K, x2 = 0.2 | 1.53
330.6 K, x2 = 0.4 | 1.44
330.6 K, x2 = 0.8 | 1.11
330.6 K, x2 = 0.9 | 0.971
333.2 K, x2 = 0.4 | 1.46
333.2 K, x2 = 0.6 | 1.29
333.2 K, x2 = 0.8 | 1.15
333.3 K, x2 = 0.9 | 1.01
333.4 K, x2 = 0.2 | 1.56
335.9 K, x2 = 0.6 | 1.33
335.9 K, x2 = 0.8 | 1.19
335.9 K, x2 = 0.9 | 1.06
336.1 K, x2 = 0.2 | 1.55
336.1 K, x2 = 0.4 | 1.49
338.7 K, x2 = 0.9 | 1.1
338.8 K, x2 = 0.6 | 1.36
338.9 K, x2 = 0.8 | 1.24
339 K, x2 = 0.4 | 1.52
339.1 K, x2 = 0.2 | 1.58
341.5 K, x2 = 0.4 | 1.55
341.6 K, x2 = 0.8 | 1.27
341.6 K, x2 = 0.9 | 1.16
341.8 K, x2 = 0.2 | 1.59
341.8 K, x2 = 0.6 | 1.39
344.2 K, x2 = 0.4 | 1.59
344.2 K, x2 = 0.6 | 1.43
344.3 K, x2 = 0.9 | 1.19
344.4 K, x2 = 0.2 | 1.62
344.4 K, x2 = 0.8 | 1.32
347 K, x2 = 0.6 | 1.47
347.1 K, x2 = 0.8 | 1.36
347.1 K, x2 = 0.9 | 1.25
347.2 K, x2 = 0.2 | 1.64
347.2 K, x2 = 0.4 | 1.6
349.6 K, x2 = 0.2 | 1.66
349.9 K, x2 = 0.9 | 1.3
350 K, x2 = 0.4 | 1.62
350 K, x2 = 0.6 | 1.5
350 K, x2 = 0.8 | 1.4

viscosity, 100 kPa
Conditions | x2 = 0.15 | x2 = 0.2 | x2 = 0.4 | x2 = 0.6 | x2 = 0.8 | x2 = 0.9
298.1 K | – | 6.8 mPa·s and 6.5 mPa·s | 14.8 mPa·s and 14.4 mPa·s | 32.4 mPa·s and 32.5 mPa·s | 45.9 mPa·s and 46.1 mPa·s | 55.6 mPa·s and 55.7 mPa·s
298.15 K | 5.2 mPa·s | 6.9 mPa·s | – | – | – | –
303 K | – | 5.6 mPa·s | 11.5 mPa·s | 22.4 mPa·s | 33.1 mPa·s | 45.7 mPa·s
308.1 K | – | 5.1 mPa·s | 10.1 mPa·s | 18.8 mPa·s | 25.8 mPa·s | 36.5 mPa·s
313 K | – | 4.3 mPa·s | 8.6 mPa·s | 15.7 mPa·s | 21.6 mPa·s | 31 mPa·s
318.1 K | – | 3.8 mPa·s | 7.6 mPa·s | 12.6 mPa·s | 18.5 mPa·s | 25.4 mPa·s
323 K | – | 3 mPa·s | 6.5 mPa·s | 10.6 mPa·s | 16 mPa·s | 22.1 mPa·s
328.1 K | – | 2.6 mPa·s | 5.8 mPa·s | 9.3 mPa·s | 14.2 mPa·s | 19.7 mPa·s
333 K | – | 2.4 mPa·s | 5.4 mPa·s | 8.2 mPa·s | 12.4 mPa·s | 17.2 mPa·s
338.1 K | – | 2.1 mPa·s | 4.9 mPa·s | 7.2 mPa·s | 10.6 mPa·s | 15.9 mPa·s
343 K | – | 2.1 mPa·s | 4.4 mPa·s | 6.1 mPa·s | 9.5 mPa·s | 14.3 mPa·s
348.1 K | – | 2.1 mPa·s | 3.9 mPa·s | 5.6 mPa·s | 8.5 mPa·s | 13 mPa·s
